One series addresses T1, TYK2 (Homo sapiens, UniProt P29597, E957D).
T1 construct: host or cells: Ba/F3 (murine B lymphocytes)
Nature of the series: TYK2 kinase activity inhibition assay (Ba/F3-FL-TYK2-E957D cell proliferation, CellTiter-Glo). Type of series: cell-based. The following applies: 72 h. The procedure:
The TYK2 kinase gene was introduced into wild-type murine-derived B lymphocytes (BaF3) to construct the Ba/F3-FL-TYK2-E957D stable cell line.
In this experiment, the inhibitory effect of the compounds on the proliferation of Ba/F3-FL-TYK2-E957D cells were tested, apoptosis was detected, and the IC50 value was calculated. The inhibitory activity of the compounds against TYK2 kinase was evaluated based on the IC50 value.
The tested compounds, powder and stored at room temperature, were prepared into 10 mM stock solution with DMSO and stored at −20° C. away from light for use.
Compounds were prepared into dilute solutions which was 1000 times of the final concentration. The compound was prepared into 20-times of the final concentration by diluting the compound with culture medium. 2 ul of 1000-times compound was added to per well to 98 ul of culture medium.
Cells (provided by Sundia Pharmaceutical Technology (Shanghai) Co., Ltd.) were resuspended and counted using an automated cell counter. The cell suspension was diluted to the desired density based on BaF3 seeding density of 2000 cells per well. Each well was plated with 95 ul of cells and incubated at 37° C. for stable equilibrium. 5 ul of 20-times compound was added to each well, with the wells to which the same volume of DMSO was added as a control.
The cell plate was equilibrated to room temperature. 40 ul CellTiter-Glo® Reagent was added to each well, shaken for 2 minutes and allowed to stand for 10 minutes. Detected with SpectraMax Paradigm.
• (1) IC50 was calculated using GraphPad Prism 5. • (2) % Inh=(Max signal−Compound signal)/(Max signal−Min signal)×100. • (3) Max signal was the positive control well with only the same volume of DMSO as the compound. • (4) Min signal was the negative control well with only the culture medium.

For series [1], the system named is IFN-α-induced STAT phosphorylation. In words: IFN-α-induced STAT phosphorylation in human whole blood. In kind it is cell-based. The following applies: human whole blood, 20 ng/ml IFN-α, pSTAT5 in CD3-positive cells; read-out: IC50, IFN-α inflammatory pathway (IFN-α-induced STAT phosphorylation). The text has this:
The cytokine receptor attached to TYK2 mediates the signaling of type 1 interferon (IFN-α), which has been identified as the most important inflammatory factor of the autoimmune system. Human whole blood is induced with IFN-α, and TYK2 from lymphocytes in whole blood triggered STAT phosphorylation, which mediated subsequent inflammatory signaling. Therefore, TYK2 inhibitors have an inhibitory effect on IFN-α signaling, and the stronger the TYK2 inhibitory activity, the lower the level of STAT phosphorylation, and the stronger the corresponding anti-inflammatory effect.
In this experiment, the ability of the compounds to inhibit IFN-α-induced STAT phosphorylation in human whole blood were tested, and the IC50 values were calculated. The anti-inflammatory activity of the compounds was evaluated at the tissue level and evaluation of the inhibitory activity of compounds on the IFN-α inflammatory pathway based on the IC50 value.
The tested compound, powder and stored at room temperature, prepared into 10 mM stock solution with DMSO and stored at −80° C. in the refrigerator.
1× Fix/Lysis solution preparation: 5× Fix/Lysis and ddH2O were diluted according to 1:4 and preheated in 37° C. incubator, waiting for use.
Flow cytometric staining buffer preparation: 1 g of bovine serum albumin (BSA) and 1 mL of EDTA (0.5 M) solution were added to 500 mL of phosphate buffer solution (PBS) and stored at 4° C. in the refrigerator.
Compound dilution solution: 0.5 g of bovine serum albumin (BSA) was added to 500 mL of phosphate buffer solution (PBS), and stored at 4° C. in the refrigerator.
50 μg/mL IFN-alpha was diluted to 400 ng/mL with Compound Diluent and set aside.
67.5 μL of human whole blood was added to a 96-well plate using a 300 μL electric volley gun. 3.5 μL of prepared test compound was added, mixed well and placed in the cell culture incubator. After 60 min incubation, 400 ng/mL IFN-α (Biolegend 592702, final concentration 20 ng/ml) was added. The obtained was mixed well and placed in the cell culture incubator to continue incubation for 15 min.
After cytokine stimulation, 5 ul of PE-CD3 (BD 555333) antibody was added to each well, mixed and incubation was continued at 4° C. in the refrigerator. At the end, whole blood was transferred to a 96-well deep-well plate using a volley gun, pre-warmed 1× Fix/Lysis solution was added, and cells were lysed and fixed for 12 minutes at 37° C. in an incubator. After being washed, 400 μL of Perm III solution was added, vortexed and incubated on ice for 30 minutes. Cells were then stained by 100 μL of APC-pSTAT5 (1:100) antibody for 50 min at room temperature. This was followed by flow-through instrumentation. The expression of pSTAT5 was quantified by median fluorescence intensity after gating the CD3-positive signaling cluster.

The nature of series [2]: In vivo pharmacokinetic experiments in Beagle dogs (oral). The following applies: for Cmax / MRT / half-life: male, dog, plasma. On the procedure: Experimental Methods: Healthy male Beagle dogs were randomly grouped into 3 […] in each group, and were given the test compounds orally. Before the gavage experiment, the dogs were fasted for 12 h, drank water freely, and were uniformly fed for 4 h after the administration of the drug. 0.083, 0.25, 0.5, 1.0, 2.0, 4.0, 6.0, 8.0, 10 and 24 h after administration; about 600 μL of blood was collected from the forelimb or hindlimb at the above set time points and placed in EDTA-K2 tubes, and the whole blood was collected and stored temporarily in an ice-water bath, and then centrifuged at least 3500 rpm for 10 min within 30 min, and the plasma was separated and frozen in a −70° C. refrigerator for testing.

Series [3] can be described thus: In vivo pharmacokinetic experiment in rats (oral). On the set-up: species or system SD rats. The following applies: 20 mg/kg. On the procedure: Experimental method: Healthy male SD rats were randomly grouped into 3 rats in each group and given the test compound orally. The rats were fasted for 12 h before the gavage experiment, and drank water freely, and were fed uniformly for 4 h after the administration of the compounds. Before (0 h) and 0.25, 0.5, 1.0, 2.0, 4.0, 6.0, 8.0 and 24 h after the administration of the test compounds, 0.2 mL of blood was collected from the jugular vein at the above set time points and placed in EDTA-K2 tubes, and the whole blood was collected and stored temporarily in an ice-water bath, and then centrifuged at 11,000 rpm for 5 min within 30 min, the plasma was separated, and frozen at −70° C. in a refrigerator for testing.

T1 sequence (P29597 whole entry E957D): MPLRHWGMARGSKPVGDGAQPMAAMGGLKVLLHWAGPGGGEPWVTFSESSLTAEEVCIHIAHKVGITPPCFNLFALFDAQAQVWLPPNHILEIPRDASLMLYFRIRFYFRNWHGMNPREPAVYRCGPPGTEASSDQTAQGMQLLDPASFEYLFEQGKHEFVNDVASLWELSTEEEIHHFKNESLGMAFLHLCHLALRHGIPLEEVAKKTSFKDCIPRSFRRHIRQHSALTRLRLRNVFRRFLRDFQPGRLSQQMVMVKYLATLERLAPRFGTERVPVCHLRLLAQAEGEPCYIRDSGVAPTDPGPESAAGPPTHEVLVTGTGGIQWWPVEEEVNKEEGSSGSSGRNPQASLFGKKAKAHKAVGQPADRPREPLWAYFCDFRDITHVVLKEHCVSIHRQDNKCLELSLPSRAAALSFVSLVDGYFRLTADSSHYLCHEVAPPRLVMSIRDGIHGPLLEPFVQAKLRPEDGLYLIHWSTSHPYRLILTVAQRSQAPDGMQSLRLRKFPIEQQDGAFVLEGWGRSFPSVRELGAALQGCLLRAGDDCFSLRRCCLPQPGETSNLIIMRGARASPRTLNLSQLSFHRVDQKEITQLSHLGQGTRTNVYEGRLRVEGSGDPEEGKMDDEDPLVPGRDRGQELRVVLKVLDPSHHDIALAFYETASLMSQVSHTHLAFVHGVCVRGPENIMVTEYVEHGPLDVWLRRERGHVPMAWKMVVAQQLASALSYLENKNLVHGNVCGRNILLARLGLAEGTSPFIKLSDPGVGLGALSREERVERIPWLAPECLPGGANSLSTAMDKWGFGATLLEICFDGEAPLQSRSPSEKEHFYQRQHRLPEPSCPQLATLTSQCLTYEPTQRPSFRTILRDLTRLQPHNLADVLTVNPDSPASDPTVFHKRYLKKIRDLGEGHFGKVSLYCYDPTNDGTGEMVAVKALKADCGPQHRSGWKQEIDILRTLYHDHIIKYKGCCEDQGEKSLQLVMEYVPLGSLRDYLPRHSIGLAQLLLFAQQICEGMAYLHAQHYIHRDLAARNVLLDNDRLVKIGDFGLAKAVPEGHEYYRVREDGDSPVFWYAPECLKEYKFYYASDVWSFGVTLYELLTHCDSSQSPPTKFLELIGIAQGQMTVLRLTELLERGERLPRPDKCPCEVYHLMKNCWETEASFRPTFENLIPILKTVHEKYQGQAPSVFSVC

On to `[2H]C([2H])([2H])NC(=O)c1nnc(NC(=O)C2CC2)cc1Nc1ncccc1S(C)(=O)=NC` (stereo not shown) [Example 2, 6-(cyclopropylcarboxamido)-4-((3-(N,S-dimethylsulfoximino)pyridin-2-yl)amino)-N-(methyl-d3)pyridazine-3-carboxamide], for which, on TYK2, the IC50 turned out to be 2.4 nM. Turning to `CN=S(C)(=O)c1ccc(N)nc1Nc1cc(NC(=O)C2CC2)nnc1C(=O)NC` (stereo not shown) [Example 7, 4-((6-amino-3-(N,S-dimethylsulfoximino)pyridin-2-yl)amino)-6-(cyclopropylcarboxamido)-N-methylpyridazine-3-carboxamide], the half-inhibitory concentration (IC50) in series [1] worked out at 22.1 nM. Molecule `CN=S(C)(=O)c1cc(Br)cnc1Nc1cc(NC(=O)C2CC2)nnc1C(=O)NC` (stereo not shown) [Example 13, 4-((5-bromo-3-(N,S-dimethylsulfoximino)pyridin-2-yl)amino)-6-(cyclopropylcarboxamido)-N-methylpyridazine-3-carboxamide] yielded a half-inhibitory concentration (IC50) against TYK2 of 3.9 nM.

`CN=S(C)(=O)c1cc(OC)cnc1Nc1cc(NC(=O)C2CC2)nnc1C(=O)NC` (stereo not shown) [Example 14, 6-(cyclopropylamido)-4-((3-(N,S-dimethylsulfoximino)-5-methoxypyridin-2-yl)amino)-N-methylpyridazine-3-carboxamide]: the IC50 at TYK2 worked out at 3.7 nM.

Turning to `CN=S(C)(=O)c1cc(OCCCOC)cnc1Nc1cc(NC(=O)C2CC2)nnc1C(=O)NC` (stereo not shown) [Example 16, 6-(cyclopropylcarboxamido)-4-((3-(N,S-dimethylsulfoximino)-5-(3-methoxypropoxy)pyridin-2-yl)amino)-N-methylpyridazine-3-carboxamide], the midpoint of inhibition at TYK2, the IC50, lay at 3.5 nM. Consider `[2H]C([2H])([2H])NC(=O)c1nnc(NC(=O)C2CC2)cc1Nc1nc(N)c(Br)cc1[S@@](C)(=O)=NC` [Example 30, (R)-4-((6-amino-5-bromo-3-(N,S-dimethylsulfoximino)pyridin-2-yl)amino)-6-(cyclopropylformyl)-N-(methyl-d3)pyridazine-3-carboxamide], for which, in series [2] (2 mg/kg), the AUC was determined as 8454 ngh/mL, the peak concentration (Cmax) was found to be 0.625 µg/mL, the MRT came to 11.8 h and the half-life was 8.61 h. Turning to `CN=S(C)(=O)c1cc2cc[nH]c2nc1Nc1cc(NC(=O)C2CC2)nnc1C(=O)NC` (stereo not shown) [Example 31, 6-(cyclopropylcarboxamido)-4-((5-(N,S-dimethylsulfoximino)-1H-pyrrolo[2,3-b]pyridin-6-yl)amino)-N-methylpyridazine-3-carboxamide], the IC50 against TYK2 stood at 1.1 nM. Same read-out and setting: to `CN=S(C)(=O)c1cc2c(Cl)c(Cl)[nH]c2nc1Nc1cc(NC(=O)C2CC2)nnc1C(=O)NC` (stereo not shown) [Example 33, 6-(cyclopropylamido)-4-((2,3-dichloro-5-(N,S-dimethylsulfoximino)-1H-pyrrolo[2,3-b]pyridin-6-yl)amino)-N-methylpyridazine-3-carboxamide] belongs 1.2 nM. On to `[2H]C([2H])([2H])N=[S@](C)(=O)c1cc(Cl)c(N)nc1Nc1cc(NC(=O)C2CC2)nnc1C(=O)NC([2H])([2H])[2H]` [Example 40, (R)-4-((6-amino-5-chloro-3-(S-methyl-N-(methyl-d3)sulfonylimino)pyridin-2-yl)amino)-6-(cyclopropylcarboxamide)-N-(methyl-d3)pyridazine-3-carboxamide], for which, at TYK2, 0.4 nM corresponded to half-maximal inhibition (IC50). In series [3], this molecule displayed an AUC of 22029 ngh/mL and an F of 109%. In series [3] (male, SD, rat, plasma), the Cmax stood at 2.95 µg/mL, the MRT was found to be 4.7 h and the half-life is 2.65 h. Further, in series [2] (10 mg/kg), the AUC came out at 79882 ngh/mL, the F worked out at 136.6%, the highest level (Cmax) was 4.85 µg/mL and the MRT was 12.7 h. The molecule also gave a half-life in series [2] (10 mg/kg) of 9.28 h. On to `[2H]C([2H])([2H])N=[S@](C)(=O)c1cc(Br)c(N)nc1Nc1cc(NC(=O)C2CC2)nnc1C(=O)NC([2H])([2H])[2H]` [Example 41, (R)-4-((6-amino-5-bromo-3-(S-methyl-N-(methyl-d3)sulfonylimino)pyridin-2-yl)amino)-6-(cyclopropylcarboxamide)-N-(methyl-d3)pyridazine-3-carboxamide], for which inhibition against TYK2 was half-maximal at 0.4 nM (IC50). Still for that read-out and setting: to `[2H]C([2H])([2H])N=[S@](C)(=O)c1cc(I)c(N)nc1Nc1cc(NC(=O)C2CC2)nnc1C(=O)NC([2H])([2H])[2H]` [Example 42, (R)-4-((6-amino-5-iodo-3-(S-methyl-N-(methyl-d3)sulfonylimino)pyridin-2-yl)amino)-6-(cyclopropylcarboxamide)-N-(methyl-d3)pyridazine-3-carboxamide] belongs 0.4 nM. The same measure, in the same setting: to `[2H]C([2H])([2H])N=[S@](C)(=O)c1cc(C2CC2)c(N)nc1Nc1cc(NC(=O)C2CC2)nnc1C(=O)NC([2H])([2H])[2H]` [Example 43, (R)-4-((6-amino-5-cyclopropyl-3-(S-methyl-N-(methyl-d3)sulfonylimino)pyridin-2-yl)amino)-6-(cyclopropylcarboxamide)-N-(methyl-d3)pyridazine-3-carboxamide] belongs 1.1 nM; to `[2H]C([2H])([2H])N=[S@](C)(=O)c1cc(C=C)c(N)nc1Nc1cc(NC(=O)C2CC2)nnc1C(=O)NC([2H])([2H])[2H]` [Example 44, (R)-4-((6-amino-3-(S-methyl-N-(methyl-d3)sulfonylimino)-5-vinylpyridin-2-yl)amino)-6-(cyclopropylcarboxamide)-N-(methyl-d3)pyridazine-3-carboxamide], 0.3 nM.

`[2H]C([2H])([2H])N=[S@](C)(=O)c1cc(C#CC)c(N)nc1Nc1cc(NC(=O)C2CC2)nnc1C(=O)NC([2H])([2H])[2H]` [Example 45, (R)-4-((6-amino-3-(S-methyl-N-(methyl-d3)sulfonylimino)-5-(propynyl-1-yl)pyridin-2-yl)amino)-6-(cyclopropylcarboxamide)-N-(methyl-d3)pyridazine-3-carboxamide] returned an IC50 at TYK2 of 0.1 nM. In turn, `[2H]C([2H])([2H])N=[S@](C)(=O)c1cc(C#CC2CC2)c(N)nc1Nc1cc(NC(=O)C2CC2)nnc1C(=O)NC([2H])([2H])[2H]` [Example 46] displayed a half-maximal inhibitory concentration (IC50) on TYK2 of 0.1 nM.

For the origin of these results see patent US20250179022A1, “COMPOUND USED AS TYK2 INHIBITOR, PREPARATION METHOD THEREFOR, AND PHARMACEUTICAL USE THEREOF” (SHANGHAI ZHIGEN PHARMACEUTICAL & TECHNOLOGY CO. LTD., priority 2022, published 2025).
